This is an account of results in patent US7872035B2, “Angiotensin II antagonists” (AstraZeneca AB, priority 2001, dated 2011).

Test [1] relates to patients having mild-to-moderate hypertension. The conditions noted are these: hypertensive patients, versus placebo; cited from earlier work.
Test [2] concerns patients suffering from migraine. Nature of the test: Pilot double-blind placebo-controlled crossover trial, prophylactic effect in migraine. Type of test: in vivo, human. On the procedure: A study in which the effects of the angiotensin II type 1 receptor antagonist candesartan cilexetil (Atacand®) is compared to that of placebo, was carried out to explore the feasability of giving candesartan cilexetil to patients suffering from, or susceptible to, vascular headache conditions, and especially migraine.
The pilot study was a double-blind placebo-controlled crossover trial on the prophylactic effect of the AT II antagonist candesartan cilexetil performed in patients suffering from migraine.
The study provides preliminary data on the feasibility of administering candesartan cilexetil for preventing migraine. It also provides preliminary data on useful concentrations of candesartan cilexetil in this use.

On to `CCCCC1=NC2(CCCC2)C(=O)N1Cc1ccc(-c2ccccc2-c2nnn[nH]2)cc1` [irbesartan], for which, in test [1], the incidence of headache entry is given as “significant reduction”. In the case of `CCOc1nc2cccc(C(=O)OC(C)OC(=O)OC3CCCCC3)c2n1Cc1ccc(-c2ccccc2-c2nn[nH]n2)cc1` (stereo not drawn) [candesartan cilexetil], the “relief of symptoms (migraine)” value in test [2] (one patient with a medical history of migraine, treating themself with Atacand 16 mg, relief subjectively noted) is “significant relief of symptoms”; in test [2] (the other patient with a medical history of migraine, relief subjectively noted after treatment with Atacand), “significant relief of symptoms”.
